According to publication PMC4450297, “Screening Active Compounds from Garcinia Species Native to China Reveals Novel Compounds Targeting the STAT/JAK Signaling Pathway” (BioMed Research International, 2015):

How the values were obtained:
Test in all cases: Cell panel screen (CellTiter-Glo)
Assay type in all cases: cell-based, human
[1] = tested on: HCC1569; conditions: HCC1569 (Breast), 20 micromolar, 72 hrs
Experimental: (§1) All cells were obtained from the cell bank of the American Type Culture Collection (ATCC) and cultured in the supplier's recommended media supplemented with 10% FBS. The cell panel screen was measured using the CellTiter-Glo assay (Promega, Madison, WI) following a standard protocol. Briefly, cancer cells were seeded in 96-well plates and cultured overnight at 37°C with or without 5% CO2 in an incubator. Each compound was dissolved with limited DMSO and diluted to a certain concentration with culture medium and then added to the corresponding well of the cell plate. The final concentration of compound was 20 μM. The control cells (without treatment) received the same amount of DMSO and were incubated under the same conditions. After 72 h cultivation, 100 μL of the CellTiter-Glo reagent was added directly to each well for 10-minute incubation. The plate was then read on a FlexStation 3 microplate luminometer (Molecular Devices, USA) to monitor the luminescence signal generated by the luciferase-catalyzed reaction of luciferin and ATP. The percent of growth inhibition was calculated using the following formula: (untreated cells − treated cells)/(untreated cells − background without cells) ∗ 100.

[2] = tested on: C3A; conditions: C3A (Liver), 20 micromolar, 72 hrs
Experimental: as §1

[3] = tested on: NCI-H1770; conditions: NCI-H1770 (Lung), 20 micromolar, 72 hrs
Experimental: as §1

[4] = tested on: ChaGo-K-1; conditions: ChaGo-K-1 (Lung), 20 micromolar, 72 hrs
Experimental: as §1

[5] = tested on: A498; conditions: A498 (listed under Lung), 20 micromolar, 72 hrs
Experimental: as §1

[6] = tested on: NCI-H524; conditions: NCI-H524 (Lung), 20 micromolar, 72 hrs
Experimental: as §1

[7] = tested on: J82; conditions: J82 (Urinary bladder), 20 micromolar, 72 hrs
Experimental: as §1

[8] = tested on: MSTO-211-H; conditions: MSTO-211-H (Lung), 20 micromolar, 72 hrs
Experimental: as §1

[9] = tested on: NCI-H1694; conditions: NCI-H1694 (Lung), 20 micromolar, 72 hrs
Experimental: as §1

[10] = tested on: Bel-7402; conditions: Bel-7402 (Liver), 20 micromolar, 72 hrs
Experimental: as §1

[11] = tested on: BT-474; conditions: BT-474 (Breast), 20 micromolar, 72 hrs
Experimental: as §1

[12] = tested on: CW-2; conditions: CW-2 (Colon), 20 micromolar, 72 hrs
Experimental: as §1

[13] = tested on: A704; conditions: A704 (Kidney), 20 micromolar, 72 hrs
Experimental: as §1

[14] = tested on: NCI-H2347; conditions: NCI-H2347 (Lung), 20 micromolar, 72 hrs
Experimental: as §1

[15] = tested on: T47D; conditions: T47D (Breast), 20 micromolar, 72 hrs
Experimental: as §1

[16] = tested on: T98G; conditions: T98G (Brain), 20 micromolar, 72 hrs
Experimental: as §1

[17] = tested on: TCCSUP; conditions: TCCSUP (Urinary bladder), 20 micromolar, 72 hrs
Experimental: as §1

[18] = tested on: HPAF-II; conditions: HPAF-II (Pancreas), 20 micromolar, 72 hrs
Experimental: as §1

[19] = tested on: BT-549; conditions: BT-549 (Breast), 20 micromolar, 72 hrs
Experimental: as §1

[20] = tested on: CCF-STTG1; conditions: CCF-STTG1 (Brain), 20 micromolar, 72 hrs
Experimental: as §1

[21] = tested on: HCC1395; conditions: HCC1395 (Breast), 20 micromolar, 72 hrs
Experimental: as §1

[22] = tested on: M059J; conditions: M059J (Brain), 20 micromolar, 72 hrs
Experimental: as §1

[23] = tested on: NCI-H28; conditions: NCI-H28 (Lung), 20 micromolar, 72 hrs
Experimental: as §1

[24] = tested on: ZR-75-30; conditions: ZR-75-30 (Breast), 20 micromolar, 72 hrs
Experimental: as §1

[25] = tested on: Panc 03.27; conditions: Panc 03.27 (Pancreas), 20 micromolar, 72 hrs
Experimental: as §1

[26] = tested on: NCI-H1623; conditions: NCI-H1623 (Lung), 20 micromolar, 72 hrs
Experimental: as §1

[27] = tested on: C8166; conditions: C8166 (Leukemia), 20 micromolar, 72 hrs
Experimental: as §1

[28] = tested on: HT-1197; conditions: HT-1197 (Urinary bladder), 20 micromolar, 72 hrs
Experimental: as §1

[29] = tested on: NCI-H2405; conditions: NCI-H2405 (Lung), 20 micromolar, 72 hrs
Experimental: as §1

[30] = tested on: HGC-27; conditions: HGC-27 (Stomach), 20 micromolar, 72 hrs
Experimental: as §1

[31] = tested on: SW13; conditions: SW13 (Adrenal gland), 20 micromolar, 72 hrs
Experimental: as §1

[32] = tested on: HEC-1-A; conditions: HEC-1-A (Uterus), 20 micromolar, 72 hrs
Experimental: as §1

[33] = tested on: HCC1937; conditions: HCC1937 (Breast), 20 micromolar, 72 hrs
Experimental: as §1

[34] = tested on: RL95; conditions: RL95 (Uterus), 20 micromolar, 72 hrs
Experimental: as §1

[35] = tested on: HCC1599; conditions: HCC1599 (Breast), 20 micromolar, 72 hrs
Experimental: as §1

[36] = tested on: Colo 205; conditions: Colo 205, 20 micromolar, 72 hrs
Experimental: as §1

SMILES	Percent Inhibition [1]	Percent Inhibition [2]	Percent Inhibition [3]	Percent Inhibition [4]	Percent Inhibition [5]	Percent Inhibition [6]	Percent Inhibition [7]	Percent Inhibition [8]	Percent Inhibition [9]	Percent Inhibition [10]	Percent Inhibition [11]	Percent Inhibition [12]	Percent Inhibition [13]	Percent Inhibition [14]	Percent Inhibition [15]	Percent Inhibition [16]	Percent Inhibition [17]	Percent Inhibition [18]	Percent Inhibition [19]	Percent Inhibition [20]	further results
CC1(C)C=Cc2c(cc(O)c3c(=O)c4ccc(O)c(O)c4oc23)O1 [gl-18]	81%	81%	89%	91%	74%	96%	88%	85%	98%	78%	92%	95%	66%	84%	83%	91%	85%	82%	86%	81%	Percent Inhibition [21]: 94%; Percent Inhibition [22]: 91%; Percent Inhibition [23]: 77%; Percent Inhibition [24]: 95%; Percent Inhibition [25]: 96%; Percent Inhibition [26]: 77%; Percent Inhibition [27]: 92%; Percent Inhibition [28]: 90%; Percent Inhibition [29]: 66%; Percent Inhibition [30]: 92%; Percent Inhibition [31]: 96%; Percent Inhibition [32]: 81%; Percent Inhibition [33]: 85%; Percent Inhibition [34]: 94%; Percent Inhibition [35]: 92%; Percent Inhibition [36]: 96%
CC(C)=CCc1c2c(c(O)c3c(=O)c4c(CC=C(C)C)c(O)c(O)cc4oc13)C=CC(C)(C)O2 [bn-4, Bannaxanthone D]	92%	63%	75%	93%	84%	98%	94%	94%	97%	94%	83%	97%	94%	53%	80%	97%	92%	73%	96%	86%	Percent Inhibition [21]: 96%; Percent Inhibition [22]: 90%; Percent Inhibition [23]: 85%; Percent Inhibition [24]: 81%; Percent Inhibition [25]: 88%; Percent Inhibition [26]: 80%; Percent Inhibition [27]: 96%; Percent Inhibition [28]: 89%; Percent Inhibition [29]: 92%; Percent Inhibition [30]: 86%; Percent Inhibition [31]: 94%; Percent Inhibition [32]: 76%; Percent Inhibition [33]: 89%; Percent Inhibition [34]: 96%; Percent Inhibition [35]: 97%; Percent Inhibition [36]: 93%
O=C1c2c(O)cc(O)cc2OC(c2ccc(O)cc2)C1c1c(O)cc(O)c2c(=O)cc(-c3ccc(O)c(O)c3)oc12 (stereo not drawn) [WZ-4]	-17%	-2%	-10%	-14%	4%	-18%	-5%	6%	-10%	-3%	-5%	11%	-1%	-4%	6%	-2%	3%	-10%	-12%	0%	Percent Inhibition [21]: 16%; Percent Inhibition [22]: -1%; Percent Inhibition [23]: 0%; Percent Inhibition [24]: 8%; Percent Inhibition [25]: -16%; Percent Inhibition [26]: -15%; Percent Inhibition [27]: -3%; Percent Inhibition [28]: -4%; Percent Inhibition [29]: -14%; Percent Inhibition [30]: -4%; Percent Inhibition [31]: 5%; Percent Inhibition [32]: 10%; Percent Inhibition [33]: 0%; Percent Inhibition [34]: -2%; Percent Inhibition [35]: 8%; Percent Inhibition [36]: -6%
COc1cc(O)c2c(=O)c3cc(CC=C(C)C)c(O)c(O)c3oc2c1CC=C(C)C [Go-15]	86%	60%	75%	11%	78%	98%	74%	69%	97%	64%	82%	96%	92%	51%	70%	98%	88%	72%	87%	84%	Percent Inhibition [21]: 25%; Percent Inhibition [22]: 88%; Percent Inhibition [23]: 74%; Percent Inhibition [24]: 83%; Percent Inhibition [25]: 86%; Percent Inhibition [26]: 78%; Percent Inhibition [27]: 93%; Percent Inhibition [28]: 51%; Percent Inhibition [29]: 50%; Percent Inhibition [30]: 98%; Percent Inhibition [31]: 95%; Percent Inhibition [32]: 67%; Percent Inhibition [33]: 85%; Percent Inhibition [34]: 94%; Percent Inhibition [35]: 62%; Percent Inhibition [36]: 89%
